Experimental data reported in patent US20260216207A1, “7-CARBONYLSTAUROSPORINE DERIVATIVE, PREPARATION METHOD THEREFOR, AND USE THEREOF” (HANGZHOU KEXING BIOCHEM. CO., LTD., priority 2023, published 2026).

Key:
Assay type in all cases: biochemical
TRKA = TRKA (Homo sapiens, UniProt P04629); test: HTRF KinEASE kinase assay, TRKA (kinase selectivity); conditions: HTRF KinEASE kit, 3 duplicate wells; read-out: TRKA IC50
Description: (§1) Inhibitory activities against PIM-1, TRKA, TRKB, FLT3, PKCδ, PKCε, PKCη, PAK4, PLK1, ROCK2, and IKKβ kinases were all determined using an HTRF®KinEASE™ kinase assay kit based on a time-resolved fluorescence technology. 7-carbonylstaurosporine (7OSTA) and TP-3654 were used as positive controls, and 3 duplicate wells were set in parallel. […] A signal ratio was calculated as F2/F1×10000, and then an IC50 value was calculated using Graphpad Prism 8 software.

PKCη = PKCη (Homo sapiens, UniProt P24723); test: HTRF KinEASE kinase assay, PKCη (kinase selectivity); conditions: HTRF KinEASE kit, 3 duplicate wells; read-out: PKCη IC50
Description: as §1

ROCK2 = ROCK2 (Homo sapiens, UniProt O75116); test: HTRF KinEASE kinase assay, ROCK2 (kinase selectivity); conditions: HTRF KinEASE kit, 3 duplicate wells; read-out: ROCK2 IC50
Description: as §1

IKKβ = target: T1, IKKβ (Homo sapiens, UniProt O14920); test: HTRF KinEASE kinase assay, IKKβ (kinase selectivity); conditions: HTRF KinEASE kit, 3 duplicate wells; read-out: IKKβ IC50
T1 sequence (O14920 1-756): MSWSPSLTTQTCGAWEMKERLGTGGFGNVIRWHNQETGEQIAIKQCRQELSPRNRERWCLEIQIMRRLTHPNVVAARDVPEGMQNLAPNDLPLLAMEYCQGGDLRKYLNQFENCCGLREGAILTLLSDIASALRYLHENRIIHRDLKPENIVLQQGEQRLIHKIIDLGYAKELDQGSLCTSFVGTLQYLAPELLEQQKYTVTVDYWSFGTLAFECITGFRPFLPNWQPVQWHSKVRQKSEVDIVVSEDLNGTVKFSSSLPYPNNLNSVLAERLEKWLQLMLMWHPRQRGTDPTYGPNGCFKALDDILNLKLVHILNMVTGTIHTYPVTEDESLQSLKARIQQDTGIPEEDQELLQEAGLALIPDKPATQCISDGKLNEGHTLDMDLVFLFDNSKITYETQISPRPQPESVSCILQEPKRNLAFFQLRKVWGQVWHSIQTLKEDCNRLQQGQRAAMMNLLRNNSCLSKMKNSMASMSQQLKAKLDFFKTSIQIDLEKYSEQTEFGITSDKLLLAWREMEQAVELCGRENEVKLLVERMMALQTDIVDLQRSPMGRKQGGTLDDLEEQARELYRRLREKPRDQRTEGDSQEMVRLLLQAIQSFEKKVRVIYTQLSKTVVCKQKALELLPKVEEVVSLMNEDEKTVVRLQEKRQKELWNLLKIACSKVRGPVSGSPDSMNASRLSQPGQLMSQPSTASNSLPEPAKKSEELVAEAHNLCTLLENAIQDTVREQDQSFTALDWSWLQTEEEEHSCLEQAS
Description: as §1

Chain of PKCη (P24723 whole entry): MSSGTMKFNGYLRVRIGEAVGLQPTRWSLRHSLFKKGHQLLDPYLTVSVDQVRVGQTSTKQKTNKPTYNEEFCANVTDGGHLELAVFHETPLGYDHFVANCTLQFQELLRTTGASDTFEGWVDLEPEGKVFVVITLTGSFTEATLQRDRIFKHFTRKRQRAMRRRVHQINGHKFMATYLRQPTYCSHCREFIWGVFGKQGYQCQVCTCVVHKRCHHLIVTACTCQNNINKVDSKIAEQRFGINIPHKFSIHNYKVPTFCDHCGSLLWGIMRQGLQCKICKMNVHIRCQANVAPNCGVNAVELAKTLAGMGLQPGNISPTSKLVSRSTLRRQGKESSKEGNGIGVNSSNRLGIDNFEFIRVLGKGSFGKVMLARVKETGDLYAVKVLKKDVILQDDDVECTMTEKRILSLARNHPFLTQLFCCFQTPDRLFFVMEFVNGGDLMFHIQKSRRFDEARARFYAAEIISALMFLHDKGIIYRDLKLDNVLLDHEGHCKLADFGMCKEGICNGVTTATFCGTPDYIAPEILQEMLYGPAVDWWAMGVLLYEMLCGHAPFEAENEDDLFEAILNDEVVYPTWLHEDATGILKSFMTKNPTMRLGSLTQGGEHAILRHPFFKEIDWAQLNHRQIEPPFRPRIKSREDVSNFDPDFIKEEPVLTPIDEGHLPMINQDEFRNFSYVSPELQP
Chain of TRKA (P04629 33-796, species assumed): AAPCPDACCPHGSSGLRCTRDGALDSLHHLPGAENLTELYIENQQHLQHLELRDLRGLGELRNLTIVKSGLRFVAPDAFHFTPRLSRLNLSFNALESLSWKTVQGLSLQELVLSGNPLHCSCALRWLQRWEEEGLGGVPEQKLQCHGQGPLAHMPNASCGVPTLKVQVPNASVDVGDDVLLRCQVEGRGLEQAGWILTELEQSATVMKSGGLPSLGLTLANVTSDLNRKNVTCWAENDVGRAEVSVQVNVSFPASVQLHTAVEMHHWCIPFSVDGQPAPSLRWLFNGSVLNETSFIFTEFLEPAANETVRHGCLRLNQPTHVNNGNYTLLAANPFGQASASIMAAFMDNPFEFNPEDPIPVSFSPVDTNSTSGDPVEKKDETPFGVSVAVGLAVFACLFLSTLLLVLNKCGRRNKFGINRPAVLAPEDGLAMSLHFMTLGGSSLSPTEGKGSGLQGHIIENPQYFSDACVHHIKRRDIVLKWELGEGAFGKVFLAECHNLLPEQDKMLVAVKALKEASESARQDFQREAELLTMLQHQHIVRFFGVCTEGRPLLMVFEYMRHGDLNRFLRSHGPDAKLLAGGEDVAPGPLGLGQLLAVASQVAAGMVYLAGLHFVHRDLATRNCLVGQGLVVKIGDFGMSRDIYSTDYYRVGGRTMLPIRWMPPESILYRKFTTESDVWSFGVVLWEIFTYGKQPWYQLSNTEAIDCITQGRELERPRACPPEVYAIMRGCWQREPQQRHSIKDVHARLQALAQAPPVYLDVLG
Chain of ROCK2 (O75116 whole entry, species assumed): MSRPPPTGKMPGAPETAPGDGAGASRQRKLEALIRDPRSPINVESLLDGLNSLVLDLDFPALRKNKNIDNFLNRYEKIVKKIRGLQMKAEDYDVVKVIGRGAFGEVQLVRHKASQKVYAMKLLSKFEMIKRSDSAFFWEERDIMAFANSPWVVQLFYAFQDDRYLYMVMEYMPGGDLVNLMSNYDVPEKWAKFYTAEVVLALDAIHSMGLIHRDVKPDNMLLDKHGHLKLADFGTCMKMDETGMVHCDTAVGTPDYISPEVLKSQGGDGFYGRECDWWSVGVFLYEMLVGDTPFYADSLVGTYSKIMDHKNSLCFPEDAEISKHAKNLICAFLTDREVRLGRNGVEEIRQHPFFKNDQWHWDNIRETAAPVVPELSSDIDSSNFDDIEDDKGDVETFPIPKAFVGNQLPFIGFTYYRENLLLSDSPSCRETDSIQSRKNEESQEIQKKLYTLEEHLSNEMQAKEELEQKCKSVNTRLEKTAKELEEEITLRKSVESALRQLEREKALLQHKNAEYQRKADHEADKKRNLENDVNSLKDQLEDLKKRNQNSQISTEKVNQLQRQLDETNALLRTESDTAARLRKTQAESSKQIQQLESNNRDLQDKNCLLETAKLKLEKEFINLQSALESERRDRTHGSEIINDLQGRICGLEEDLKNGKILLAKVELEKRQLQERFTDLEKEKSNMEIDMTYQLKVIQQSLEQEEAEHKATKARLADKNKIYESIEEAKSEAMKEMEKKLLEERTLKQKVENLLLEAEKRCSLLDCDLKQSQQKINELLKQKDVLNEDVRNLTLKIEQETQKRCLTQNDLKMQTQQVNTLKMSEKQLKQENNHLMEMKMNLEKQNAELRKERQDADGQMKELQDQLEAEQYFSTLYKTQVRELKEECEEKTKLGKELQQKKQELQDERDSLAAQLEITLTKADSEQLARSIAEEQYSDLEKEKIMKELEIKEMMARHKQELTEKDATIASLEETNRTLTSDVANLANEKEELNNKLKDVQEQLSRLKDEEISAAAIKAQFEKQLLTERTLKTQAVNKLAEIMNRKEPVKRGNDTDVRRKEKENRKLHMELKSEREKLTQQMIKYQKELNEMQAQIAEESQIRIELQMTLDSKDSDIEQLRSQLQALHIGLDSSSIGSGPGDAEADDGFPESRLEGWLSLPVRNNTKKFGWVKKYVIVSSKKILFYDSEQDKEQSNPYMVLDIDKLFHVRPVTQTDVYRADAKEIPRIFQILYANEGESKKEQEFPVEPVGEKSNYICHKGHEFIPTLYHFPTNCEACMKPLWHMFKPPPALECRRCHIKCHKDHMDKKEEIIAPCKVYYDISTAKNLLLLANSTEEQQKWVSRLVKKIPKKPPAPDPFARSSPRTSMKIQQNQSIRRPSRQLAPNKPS

IC50 (TRKA): 4 nM
IC50 (PKCη): 73.2 nM
IC50 (ROCK2): 562 nM
IC50 (IKKβ): > 1000 nM
Compound: CO[C@@H]1[C@H](N(C)C(=O)CCC(=O)NO)C[C@H]2O[C@]1(C)n1c3ccccc3c3c4c(c5c6ccccc6n2c5c31)C(=O)NC4=O [Compound 17]
